This note sets out measurements from US20240239757A1, “PHTHALAZINONE DERIVATES AS NLRP3 INFLAMMASOME INHIBITORS” (JANSSEN PHARMACEUTICA NV, priority 2021, published 2024).

One data set has as its system TNF. Briefly: PBMC assay, TNF. It counts as cell-based. The settings on record: human PBMCs, 30 min with compound, then 100 ng/ml LPS for 6 hrs, supernatant analysed via MSD technology. The method, then: (§1) Peripheral venous blood was collected from healthy individuals and human peripheral blood mononuclear cells (PBMCs) were isolated from blood by Ficoll-Histopaque (Sigma-Aldrich, A0561) density gradient centrifugation. After isolation, PBMCs were stored in liquid nitrogen for later use. Upon thawing, PBMC cell viability was determined in growth medium (RPMI media supplemented with 10% fetal bovine serum, 1% Pen-Strep and 1% L-glutamine). Compounds were spotted in a 1:3 serial dilution in DMSO and diluted to the final concentration in 30 μl medium in 96 well plates (Falcon, 353072). PBMCs were added at a density of 7.5×10^4 cells per well and incubated for 30 min in a 5% CO2 incubator at 37° C. LPS stimulation was performed by addition of 100 ng/ml LPS (final concentration, Invivogen, tlrl-smlps) for 6 hrs followed by collection of cellular supernatant and the analysis of IL-1β (μM) and TNF cytokines levels (μM) via MSD technology according to manufacturers' guidelines (MSD, K151A0H).
(§2) The IC50 values (for IL-1β) and EC50 values (TNF) were obtained on compounds of formula (I)/examples, and are depicted in the following table: […]

A further data set deals with IL-1β. Briefly: PBMC assay, IL-1β. It is filed as cell-based. The settings on record: human PBMCs, 30 min with compound, then 100 ng/ml LPS for 6 hrs, supernatant analysed via MSD technology, read-out: IL1β IC50. The method, then: The activity of a compound according to the present invention can be assessed by in vitro methods.
as §1, §2

The EC50 is the concentration that produces a half-maximal response. A word on the IC50: it is the concentration needed to halve the response being measured. The melting point is the temperature, or range, at which the solid turns liquid. Compound `O=C(Cn1nc(N2CC(F)(F)C2)c2cc(Br)ccc2c1=O)Nc1ccncn1` [Compound 4G] showed a melting point of 286.8 °C. Also, the EC50 with TNF is above 10 µM. For the same compound, in the data set on IL-1β, the 50% inhibitory concentration (IC50) was determined as 4.29 µM.

Turning to `CN(C)c1nn(CC(=O)N[C@H]2C[C@@](C)(O)C2)c(=O)c2cc(Cl)ccc12` [Compound 9H], the melting point worked out at 173.1 °C. Moreover, in the data set on TNF, the EC50 was above 10 µM. In addition, the 50% inhibitory concentration (IC50) in the data set on IL-1β was above 10 µM.

`CN(C)c1nn(CC(=O)Nc2ccc(=O)n(C)n2)c(=O)c2cc(Cl)ccc12` [Compound 9I] gave a melting point of 213.2 °C. For the same compound, the concentration for a half-maximal effect (EC50) in the data set with TNF is above 10 µM. In addition, in the data set with IL-1β, the concentration for half-maximal inhibition (IC50) is above 10 µM.

Compound `CN(C)c1nn(CC(=O)Nc2ccc(=O)n(C)n2)c(=O)c2ccc(C(F)(F)F)cc12` [Compound 1K] gave a melting point of 241.8 °C. In the data set on TNF, the EC50 is above 10 µM. Moreover, in the data set on IL-1β, the IC50 is 0.36 µM.

For `CN(C)c1nn(CC(=O)Nc2ccc3nncn3c2)c(=O)c2ccc(Br)cc12` [Compound 5D], the melting point is above 300 °C. Also, in the data set on TNF, the EC50 was above 10 µM. Further, the half-maximal inhibitory concentration (IC50) with IL-1β is 0.05 µM.

For `O=C(Cn1nc(N2CC(F)(F)C2)c2cc(C(F)(F)F)ccc2c1=O)Nc1ccc2nncn2c1` [Compound 3C], the EC50 in the data set with TNF is above 10 µM. Further, the IC50 in the data set on IL-1β is above 10 µM.

Take `C[C@]1(O)C[C@@H](NC(=O)Cn2nc(N3CC(F)(F)C3)c3cc(C(F)(F)F)ccc3c2=O)C1` [Compound 3F]: the melting point is 213.3 °C. The EC50 in the data set with TNF is above 10 µM. The half-maximal inhibitory concentration (IC50) in the data set with IL-1β is 3.09 µM.

The compound `CN(C)c1nn(CC(=O)N[C@H]2C[C@@](C)(O)C2)c(=O)c2ccc(Cl)cc12` [Compound 8H] returned a melting point of 184.8 °C. Also, the EC50 in the data set on TNF was above 10 µM. Besides, in the data set on IL-1β, the concentration for half-maximal inhibition (IC50) was determined as 0.12 µM.

For `CN(C)c1nn(CC(=O)Nc2ccc(=O)n(C)n2)c(=O)c2ccc(Cl)cc12` [Compound 8J], the melting point stood at 253.4 °C. Moreover, the half-maximal effective concentration (EC50) with TNF is above 10 µM. In addition, the IC50 with IL-1β is 0.84 µM.

`CN(C)c1nn(CC(=O)Nc2ccc3nncn3n2)c(=O)c2ccc(C(F)(F)F)cc12` [Compound 2A, N-([1,2,4]triazolo[4,3-b]pyridazin-6-yl)-2-(4-(dimethylamino)-1-oxo-6-(trifluoromethyl)phthalazin-2(1H)-yl)acetamide]: the half-maximal effective concentration (EC50) in the data set on TNF was above 10 µM. Also, in the data set with IL-1β, the 50% inhibitory concentration (IC50) amounted to 0.07 µM.

`CC(C)n1ccc(NC(=O)Cn2nc(N3CC(F)(F)C3)c3cc(C(F)(F)F)ccc3c2=O)n1` [Compound 3G] came in with a melting point of 220 °C. Further, the half-maximal effective concentration (EC50) with TNF is above 10 µM. In addition, in the data set on IL-1β, the IC50 was above 10 µM.

As to `CN(C)c1nn(CC(=O)Nc2ccncn2)c(=O)c2ccc(C(F)(F)F)cc12` [Compound 1I], the melting point was 238.3 °C. For the same compound, the EC50 in the data set on TNF was above 10 µM. Also, the half-inhibitory concentration (IC50) with IL-1β was 0.17 µM.

In turn, `CN(C)c1nn(CC(=O)N[C@H]2C[C@@](C)(O)C2)c(=O)c2ccc(C(F)(F)F)cc12` [Compound 1J] gave a melting point of 184.8 °C. The 50% effective concentration (EC50) in the data set on TNF was above 10 µM. Also, the IC50 in the data set with IL-1β amounted to 0.07 µM.

For the compound `CN(C)c1nn(CC(=O)Nc2ccc3nncn3n2)c(=O)c2ccc(Br)cc12` [Compound 11A], the melting point worked out at 231.6 °C. Also, the 50% effective concentration (EC50) with TNF was above 10 µM. Further, the IC50 with IL-1β came out at 0.05 µM.

`CN(C)c1nn(CC(=O)Nc2ccc3nncn3n2)c(=O)c2ccc(Cl)cc12` [Compound 10A] returned a melting point of 270.3 °C. Also, the 50% effective concentration (EC50) in the data set with TNF was above 10 µM. The IC50 with IL-1β is 0.13 µM.

As to `O=C(Cn1nc(N2CC(F)(F)C2)c2cc(C(F)(F)F)ccc2c1=O)Nc1ccnnc1` [Compound 3E], the melting point stood at 221.6 °C. Further, the EC50 with TNF is above 10 µM. Further, the IC50 in the data set with IL-1β turned out to be 9.61 µM.

In turn, `CN(C)c1nn(CC(=O)Nc2ccc3nncn3c2)c(=O)c2cc(Cl)ccc12` [Compound 9J] displayed a melting point above 300 °C. Moreover, the 50% effective concentration (EC50) in the data set with TNF was above 10 µM. Moreover, the half-maximal inhibitory concentration (IC50) in the data set on IL-1β was above 10 µM.

In the case of `O=C(Cn1nc(N2CC(F)(F)C2)c2cc(C(F)(F)F)ccc2c1=O)Nc1ccncn1` [Compound 3D], the melting point worked out at 288.6 °C. In the data set with TNF, the concentration giving a half-maximal response (EC50) was above 10 µM. Also, in the data set with IL-1β, the concentration for half-maximal inhibition (IC50) worked out at 3.32 µM.

Turning to `CN(C)c1nn(CC(=O)Nc2ccc(=O)n(C)n2)c(=O)c2ccc(Br)cc12` [Compound 5E], the melting point came to 246.8 °C. For the same compound, the EC50 in the data set with TNF is above 10 µM. The IC50 in the data set with IL-1β stood at 0.17 µM.

Regarding `COCCN(C)c1nn(CC(=O)Nc2ccc3nncn3c2)c(=O)c2ccc(C(F)(F)F)cc12` [Compound 7C], the EC50 in the data set on TNF is above 10 µM. Besides, in the data set on IL-1β, the IC50 stood at 5.63 µM.

Take `CN(C)CCN(C)c1nn(CC(=O)Nc2ccc3nncn3c2)c(=O)c2ccc(C(F)(F)F)cc12` [Compound 6C]: the 50% effective concentration (EC50) in the data set on TNF is above 10 µM. The 50% inhibitory concentration (IC50) in the data set on IL-1β was above 10 µM.

Consider `CN(C)c1nn(CC(=O)Nc2ccc3nncn3c2)c(=O)c2ccc(Cl)cc12` [Compound 8I], for which the melting point came out at 295.3 °C. Also, the EC50 in the data set on TNF was above 10 µM. The IC50 in the data set with IL-1β is 0.31 µM.

`CN(C)c1nn(CC(=O)N[C@H]2C[C@@](C)(O)C2)c(=O)c2ccc(Br)cc12` [Compound 5C] came in with a melting point of 193.2 °C. Besides, the EC50 in the data set with TNF was above 10 µM. Moreover, the concentration for half-maximal inhibition (IC50) in the data set with IL-1β worked out at 0.03 µM.

`CN(C)c1nn(CC(=O)Nc2ccc3nncn3c2)c(=O)c2ccc(C(F)(F)F)cc12` [Compound 1H, N-([1,2,4]triazolo[4,3-a]pyridin-6-yl)-2-(4-(dimethylamino)-1-oxo-6-(trifluoromethyl)phthalazin-2(1H)-yl)acetamide]: the EC50 in the data set on TNF is above 10 µM. In the data set with IL-1β, the IC50 came out at 0.08 µM.
